Test results as given in PMC7551591, “The Effect of Resveratrol or Curcumin on Head and Neck Cancer Cells Sensitivity to the Cytotoxic Effects of Cisplatin” (Nutrients, 2020).

Columns and labels:
Format in all cases: cell-based, human
[1] = tested on: p21 protein (CIP1/CDKN1A) expression in HUVEC; assay: Total p21 protein ELISA in cell lysates, normal cells; conditions: 24 h
Description: (§1) After incubation, cells were washed twice with ice-cold PBS, scraped, pelleted and lysed in RIPA buffer (Pierce) supplemented with protease inhibitor cocktail (Roche) and phosphatase inhibitor (Roche) for 30 min on ice. The lysates were transfered into microcentrifuge tubes and centrifuged at 14,000× g for 5 min at 4 °C followed by sonication (10–15 s × 3). The supernatants were collected into clean microcentrifuge tubes and stored at −80 °C. Lysates protein concentration were quantified by BCA protein assay kit (Thermo Scientific) and aliquots of 50 μg of total cell lysate were used for ELISA assay.
(§2) DuoSetR IC ELISA-Human Total p21/CIP1/CDKN1A(: DYC1047-2) was purchased from R&D Systems Inc. and contains the basic components required for the development of sandwich ELISAs to measure human p21 protein also known as CIP1 and CDKN1A in cell lysates. An immobilized capture antibody specifically binds human p21. After washing away unbound material, a biotinylated detection antibody specific for human p21 is used to detect the captured protein, utilizing a standard Streptavidin-HRP format. All experiments were performed in triplicates and absorbance was measured at λ = 450 nm using a Dynex plate reader.
(§3) In cancer development and evolution p21 protein might acts as an oncogene or tumor suppressor and for this reason it could be an important player in processes such as the cancer aggressiveness or the response to chemotherapy. In this study, using ELISA assay we analyzed the expression level of p21 in the tumor cells (PE-CA/PJ49) compared to a normal cells (HUVEC).

PE/CA-PJ49 tumor cells [2] = assay: Cell cycle phase distribution by PI flow cytometry, tumor cells; conditions: 24 h, CisPt 20 μM
Description: (§4) For analysis of cell-cycle distribution, the cells were collected after treatment, fixed with 70% ethanol for at least one hour at 4 °C. The cells were stained with propidium iodide (PI) an agent which intercalates into the major groove of double-stranded DNA and produces a highly fluorescent adduct that can be excited at 488 nm with a broad emission around 600 nm. Since PI can also bind to double-stranded RNA, it is necessary to treat the cells with RNase for optimal DNA resolution. Cells (1×10^6 cells/mL) were washed in PBS and centrifuge at 300× g, 5 min at 4 °C. The pellet of the cells were incubated for 10 min at 37 °C with 0.5 mg/sample RNase A and then was added 10 μg/sample of PI staining solution to cell pellet, mix well and incubated 10 min at 37 °C. The samples stored at 4 °C until analyzed by flow cytometry. A minimum of 20,000 events for each sample were collected using a FACS CantoII flow cytometer and ModFIT software (BectonDickinson) and used to determine the cell cycle phase distribution after debris exclusion.
(§5) The progression through the cell cycle phases induced by treatment were evaluated by flow cytometry using a FACSCanto II flow cytometer. Data analysis were performed using the ModFit 3.2 program which offers the possibility of evaluating the cell cycle phases distribution (G0/G1, S, G2 + M).

HUVEC normal cells [3] = assay: Cell cycle phase distribution by PI flow cytometry, normal cells; conditions: 24 h
Description: as §4, §5

HUVEC normal cells [4] = assay: MTT drug sensitivity (viability) assay, normal cells; conditions: 24 h
Description: (§6) The MTT assay is based on the ability of viable cells to reduce the reagent 3-(4,5-dimethylthiazol-2-yl)-2,5-diphenyltetrazolium bromide to colored formazan compounds [48]. Because the transformation is only possible in viable cells, the amount of blue formazan is proportional to the number of viable cells and thus, a linear dependence exists between cell activity and absorbance. Cells were seeded in triplicate in 96-well plates at a density of 5000 cells/well, incubated at 37 °C for 24 h. […] After the incubation period, 20 μL MTT (5 mg/mL in PBS) was added and further incubated for 4 h. The supernatant was removed, and the formazan product was analyzed spectrophotometrically (570 nm) after dissolution in DMSO. Wells without cells serve as a blank, and their absorbance was subtracted from the other results. Untreated cells were used as control and their viability was assumed as 100%. Results were expressed as mean values of three determinations ± standard deviation (SD). Data are presented as percent of cell viability and compared to untreated [Viability% = (T − B)/(U − B) × 100, {where T = absorbance of treated cells; U = absorbance of untreated cells, B = absorbance of blank}]. Once percent viability was obtained, the drug response curve was generated, and inhibitory concentration (IC50 and IC25) was calculated using GraphPad Prism version 5.01 [49].
(§7) SI values of more than 2 were considered as indicative of high selectivity.
(§8) The anticancer cytotoxic activity in vitro was evaluated by the MTT assay. […] The most widely used and informative measure of a drug’s efficacy is IC50-the half-maximal inhibitory concentration. IC50 was determined at half of the difference between the maximum (plateau) and minimum absorbance values, by plotting the absorbance value at 570 nm (Y axis) versus the concentration of the compound analysed (X axis). The IC50 values were reported as a mean of three independent experiments ± standard deviation (S.D.).

PE/CA-PJ49 tumor cells [5] = assay: Annexin V-FITC/PI apoptosis flow cytometry, tumor cells; conditions: 24 h
Description: (§9) The apoptosis assay was carried out with the Annexin V-FITC kit using the manufacturer’s (BD Pharmingen) protocol. Treated and untreated 1 × 10^6 cells/mL were resuspended in cold binding buffer and staining simultaneously with 5 μL FITC-Annexin V (green fluorescence) and 5 μL propidium iodide (PI) in the dark, at room temperature for 15 min. Then, 400μL of Annexin V binding buffer was added and 10,000 cells/sample were acquired using a BD Canto II flow cytometer. The analysis was performed using DIVA 6.2 software in order to discriminate viable cells (FITC^−PI^−) from necrotic cells […] and early apoptosis (FITC^+PI^−) from late apoptosis.
(§10) Apoptosis can be seen as an efficient method of preventing malignant transformation, as it ensures the removal of cells which present with genetic alterations. Deficient apoptosis can promote the development of cancer, both through the accumulation of cells found during division and the blocking of the removal of cells with high malignant potential genetic variations. The factors which determine the cells to follow one of three possible pathways are not yet known – the start of apoptosis after cellular injury, the repair of the lesion or the continuation of the cellular cycle. Many therapeutical agents have anti-tumoral effects generated by their capacity to activate the apoptotic process. […] The flow cytometric analysis was performed using DIVA 6.2 software and allowed to discriminate viable cells (FITC^−PI^− = Q3) from necrotic cells (FITC^−PI^+ = Q1) and early apoptosis (FITC^+PI^− = Q4) from late apoptosis (FITC^+PI^+ = Q2).

HUVEC normal cells [6] = assay: Annexin V-FITC/PI apoptosis flow cytometry, normal cells; conditions: 24 h; for Apoptoza Tarzie = Q2 (%): late apoptosis; for Apoptoza Totală = Q2+Q4 (%): total apoptosis
Description: as §9, §10

PE/CA-PJ49 tumor cells [7] = assay: MTT drug sensitivity (viability) assay, tumor cells; conditions: PE/CA-PJ49, 24 h
Description: as §6, §7, §8

[8] = tested on: p21 protein (CIP1/CDKN1A) expression in PE/CA-PJ49; assay: Total p21 protein ELISA in cell lysates, tumor cells; conditions: 24 h
Description: as §1, §2, §3

## N.N.[Cl][Pt][Cl] [CisPt, cis-diamminedichloroplatinum]
[1]; 5 μM CisPt
  p21 pg/mL HUVEC: 238 pg/mL
[1]; 20 μM CisPt
  p21 pg/mL HUVEC: 195 pg/mL
PE/CA-PJ49 tumor cells [2]
  G2/M%: 27.5%
HUVEC normal cells [3]; 5 μM CisPt
  synthesis phase (S): 29.2%
HUVEC normal cells [3]; CisPt 20 μM
  S%: 39.65%
HUVEC normal cells [4]; CisPt 5 μM vs untreated cells
  cell viability (MTT): significantly reduced
HUVEC normal cells [4]; CisPt 20 μM vs untreated cells
  cell viability (MTT): significantly reduced
HUVEC normal cells [4]; MTT
  IC 25: 5.82 ± 1.1 µM
  IC50: 20.9 ± 2.1 µM
PE/CA-PJ49 tumor cells [5]; 5 μM CisPt
  Early Apoptosis = Q4 (%): 11.3%
  Late Apoptosis = Q2 (%): 1.2%
  Necrosis = Q1 (%): 2.1%
  Total Apoptosis = Q2 + Q4 (%): 12.5%
PE/CA-PJ49 tumor cells [5]; 20 μM CisPt
  Early Apoptosis = Q4 (%): 15.3%
  Late Apoptosis = Q2 (%): 2.1%
  Necrosis = Q1 (%): 1.4%
  Total Apoptosis = Q2 + Q4 (%): 17.4%
HUVEC normal cells [6]; 5 μM CisPt
  Early Apoptosis = Q4 (%): 5.6%
  Necrosis = Q1 (%): 1.6%
  Apoptoza Tarzie = Q2 (%): 0.5%
  Apoptoza Totală = Q2+Q4 (%): 6.1%
HUVEC normal cells [6]; 20 μM CisPt
  Early Apoptosis = Q4 (%): 7.7%
  Necrosis = Q1 (%): 1.5%
  Apoptoza Tarzie = Q2 (%): 0.5%
  Apoptoza Totală = Q2+Q4 (%): 8.2%
PE/CA-PJ49 tumor cells [7]; CisPt 5 μM vs untreated cells
  cell viability (MTT): significantly affected
PE/CA-PJ49 tumor cells [7]; CisPt 20 μM vs untreated cells
  cell viability (MTT): significantly affected
PE/CA-PJ49 tumor cells [7]; MTT
  IC 25: 3.95 ± 1.2 µM
  IC50: 9.72 ± 1.7 µM
[8]; 5 μM CisPt
  p21 pg/mL PE/CA-PJ49: 1157 pg/mL
[8]; 20 μM CisPt
  p21 pg/mL PE/CA-PJ49: 915 pg/mL
